Data published in patent publication US20240238316A1, “C[…]” (priority 2021, published 2024).

Assay: solvents tested for dissolving the acid and the cannabinoid
Format: physicochemical
Details: compared with other solvents, including other alcohols
Method: Various solvents are tested, including other alcohols.

With `CC(O)CO` (stereo not shown) [Propylene glycol] the “dissolution of the acid and the cannabinoid in the solvent” value was “dissolve both the acid and the cannabinoid efficiently and without excessive heating”.
